Test results reported in patent US9649295B2, “Chemical inhibitors of soluble adenylyl cyclase (sAC)” (Cornell Research Foundation, Inc., priority 2004, dated 2017).
pIC50: −log10 of the molar value.

Experiments:
tmACs [1] = experiment: adenylyl cyclase activity in forskolin stimulated INS-1E cell lysate; conditions: forskolin (10 μM) stimulated INS-1E
Experimental: In vitro adenylyl cyclase assays were performed on purified recombinant human sACt protein as previously described in Litvin et al., “Kinetic Properties of “Soluble” Adenylyl Cyclase.

tmACs [2] = experiment: cAMP forming activity inside cells stimulated with forskolin; assay type: cell-based; conditions: read-out: in vivo IC50 tmAC (FSK)
cAMP in INS-1E cells = experiment: intracellular cAMP in INS-1E cells; assay type: cell-based
Experimental: (§1) Briefly, cells (passage 140-150) were plated at 2.5×10^5 cells/well in a 24 well plate and permitted to recover for two days. Cells were glucose starved by incubation for 1 hour in the presence of 2.5 mM glucose KRB medium supplemented with 2 mM sodium bicarbonate, 10 mM Hepes, and 0.1% BSA. After washing, cells were incubated in KRB with either 2.5 mM or 16 mM glucose in the presence of either vehicle control (DMSO or MeOH) or indicated drug. After the indicated time, removed media was cleared of cell debris and secreted insulin was measured by Insulin ELISA kit (Linco Research, St. Charles, Mo., or ALPCO, Windham, N.H.). If cAMP was to be concomitantly measured, cells were pre-treated with IBMX for the final 10 minutes of the glucose starvation and IBMX was included in all subsequent incubations. For the washout experiment, subsequent to initial insulin determination, cells treated with KH7 were placed in fresh KRB (2.5 mM glucose) for an additional hour and insulin release was measured as above in the absence of any added drug. For transferrin recycling, loading of cells with I^125 transferrin was performed during hour incubation in 2.5 mM glucose KRB.

INS-1E cells [3] = experiment: transferrin recycling in INS-1E cells; assay type: cell-based; conditions: 30 minutes, KH7 30 μM
Experimental: as §1

[4] = target: T1, Type II tmAC (tmAC in extracts) (Homo sapiens, UniProt Q08462); experiment: in vitro cyclase activity in extracts of cells overexpressing Type II tmAC; assay type: biochemical; conditions: cell printing μM
T1 construct: expressed in transfected cells

Plasmodium falciparum = Plasmodium falciparum viability, luciferase assay; assay type: cell-based; conditions: 24 hours
Experimental: . Plasmodium cultures were incubated in the indicated concentrations of KH7 or KH7.15 for 24 hours and viability assessed by luciferase assay (FIG. 16A). […].
Therefore, the effect of sAC inhibitors on P. falciparum viability was tested. […].

[5] = target: catalytic portion of the sAC-like adenylyl cyclase from Candida albicans (fragment JR3) (Candida albicans, UniProt A0A1D8PR83); experiment: biochemical
Excerpt: (§2) . FIG. 17A illustrates the bicarbonate dependence of the JR3 fragment; […];

INS-1E cells [6] = experiment: insulin release in INS-1E cells; assay type: cell-based; conditions: for effect on PMA induced insulin release: PMA 300 nM, 2.5 mM glucose, KH7 30 μM
Experimental: as §1

PfAC = experiment: adenylyl cyclase activity in whole cell extract of isolated parasites; assay type: biochemical, Plasmodium falciparum; conditions: MnCl2 and ATP
[7] = target: T2, purified solubilized version of Type VII tmAC (sol.AC7) (Homo sapiens, UniProt P51828); experiment: in vitro cyclase activity of purified solubilized Type VII tmAC; assay type: biochemical; conditions: read-out: in vitro IC50 pure sol.AC7
T2 construct: a mixture of purified catalytic domains, C1 and C2, from Type VII tmAC; made in house

primary mouse islets = experiment: insulin release from isolated mouse islets; assay type: cell-based; conditions: 16.7 mM glucose, 30 minutes, 30 μM KH7
Experimental: After several washes with Hank's Balanced Salt Solution, islets were hand-picked and 15-20 islets were distributed into each well of a 12 well plate to adhere overnight in RPMI-1640 media supplemented with 10 mM HEPES, 5.6 mM glucose, 10% FBS, 2 mM L-glutamine, 1 mM sodium pyruvate, and antibiotics.
Insulin release from isolated islets was performed in 12 well plates. Islets were preincubated in KRB (2.8 mM glucose) for 1 hour followed by incubation for 30 minutes in 2.8 mM glucose KRB in the presence of drug. The same wells were then incubated for an additional 30 minutes in 16.7 mM glucose KRB in the presence of the same drugs. Media was removed, cleared of cells, and insulin was measured.

[8] = test system: sAC overexpressing INS-1E cells; experiment: insulin secretion in sAC overexpressing INS-1E cells (SF2); assay type: cell-based; conditions: 30 μM KH7, 15 minutes
Excerpt: FIGS. 14A-C illustrate that sAC-generated cAMP, distinct from tmAC-generated cAMP, is sufficient to elicit insulin secretion. […] Shown is a representative assay repeated at least five times; values indicate duplicate determinations with standard deviations. […] Shown is a representative assay repeated at least five times; values indicate duplicate determinations with standard deviations. Insert is a Western blot indicating the levels of sAC protein in INS-1E, SF2, and SF5 cells. […] Values represent mean±SEM (n=3). ANOVA analysis was performed with asterisks indicating statistically significant differences. ***=p<0.001. […]
Briefly, cells (passage 140-150) were plated at 2.5×10^5 cells/well in a 24 well plate and permitted to recover for two days. […] After the indicated time, removed media was cleared of cell debris and secreted insulin was measured by Insulin ELISA kit (Linco Research, St. Charles, Mo., or ALPCO, Windham, N.H.). If cAMP was to be concomitantly measured, cells were pre-treated with IBMX for the final 10 minutes of the glucose starvation and IBMX was included in all subsequent incubations. For the washout experiment, subsequent to initial insulin determination, cells treated with KH7 were placed in fresh KRB (2.5 mM glucose) for an additional hour and insulin release was measured as above in the absence of any added drug. […]

[9] = test system: CREB phosphorylation in isolated nuclei; experiment: CREB phosphorylation in isolated HeLa nuclei (P2), Western analysis; assay type: biochemical; conditions: 40 mM bicarbonate, 50 μM KH7
Experimental: The resuspended pellet and 60% OptiPrep iodixanol were mixed (30% OptiPrep final) and centrifuged at 10,000 g for 20 min. The supernatant was removed and the nuclei-enriched pellet (P2) was resuspended in TM-2 buffer without detergent.
Reactions were stopped by the addition of 20 μl of SDS sample buffer (CREB phosphorylation) or by being placed into a 100° C. heat block for 3 min (adenylyl cyclase).
For whole cell and isolated nuclei CREB phosphorylation assays, equal cell or nuclear equivalents were separated under reducing conditions using a 10% SDS-PAGE, transferred to a PVDF membrane, and probed for CREB (rabbit polyclonal antiserum; Chemicon, Temecula, Calif.) and phosphorylated CREB (rabbit polyclonal antiserum; Upstate Biotechnology, Temecula, Calif.). HRP-conjugated secondary antibodies were used, and bands were visualized using ECL. Image analysis software (model Fluorchem 8800; Alpha Innotech, San Leandro, Calif.) was used to quantitate Western results. Intensities of phospho-CREB bands were normalized to total CREB.

Candida albicans = experiment: CO2 induced differentiation of Candida albicans into the filamentous stage; assay type: cell-based; conditions: similar dose dependency as on JR3
Excerpt: as §2

[10] = 16 mM glucose, 30 μM KH7, 30 μM KH7.15, 50 μM 2-hydroxyestradiol, 50 μM 2′5′ddAdo

catalytic portion of the sAC-like adenylyl cyclase from Candida albicans (fragment JR3), sequence (A0A1D8PR83 entry or part of it): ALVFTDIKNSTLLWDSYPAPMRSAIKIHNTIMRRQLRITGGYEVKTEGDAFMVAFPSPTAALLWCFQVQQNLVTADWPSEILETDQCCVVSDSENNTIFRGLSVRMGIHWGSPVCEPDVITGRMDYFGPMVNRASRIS
T1 sequence (Q08462 whole entry): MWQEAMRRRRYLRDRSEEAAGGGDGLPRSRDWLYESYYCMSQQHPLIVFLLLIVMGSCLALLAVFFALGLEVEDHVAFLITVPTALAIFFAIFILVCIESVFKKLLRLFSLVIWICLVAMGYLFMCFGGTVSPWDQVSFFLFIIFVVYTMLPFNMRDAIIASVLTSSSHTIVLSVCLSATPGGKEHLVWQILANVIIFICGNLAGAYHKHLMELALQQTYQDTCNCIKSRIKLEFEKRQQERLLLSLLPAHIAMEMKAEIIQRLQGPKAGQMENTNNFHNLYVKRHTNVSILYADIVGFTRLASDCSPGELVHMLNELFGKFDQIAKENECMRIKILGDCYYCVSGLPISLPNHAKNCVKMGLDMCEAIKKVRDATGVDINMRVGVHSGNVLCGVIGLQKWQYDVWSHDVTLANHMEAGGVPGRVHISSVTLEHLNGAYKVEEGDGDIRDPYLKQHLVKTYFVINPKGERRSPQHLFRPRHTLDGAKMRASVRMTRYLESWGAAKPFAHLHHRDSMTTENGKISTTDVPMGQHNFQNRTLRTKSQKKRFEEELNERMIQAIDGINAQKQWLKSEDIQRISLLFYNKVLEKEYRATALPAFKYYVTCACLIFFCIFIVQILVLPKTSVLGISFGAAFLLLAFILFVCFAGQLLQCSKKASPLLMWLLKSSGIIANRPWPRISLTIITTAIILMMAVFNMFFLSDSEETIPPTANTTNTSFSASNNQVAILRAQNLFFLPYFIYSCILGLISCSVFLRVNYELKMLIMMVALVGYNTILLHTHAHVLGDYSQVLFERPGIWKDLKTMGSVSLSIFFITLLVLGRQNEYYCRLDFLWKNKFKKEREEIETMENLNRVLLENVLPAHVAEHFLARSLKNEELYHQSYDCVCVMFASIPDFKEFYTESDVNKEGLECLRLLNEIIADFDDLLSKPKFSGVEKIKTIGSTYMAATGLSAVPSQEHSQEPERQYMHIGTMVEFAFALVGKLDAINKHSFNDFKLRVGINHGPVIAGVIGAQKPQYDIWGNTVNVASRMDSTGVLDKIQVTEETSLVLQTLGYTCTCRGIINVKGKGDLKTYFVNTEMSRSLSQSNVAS
T2 sequence (P51828 279-406 limits assumed): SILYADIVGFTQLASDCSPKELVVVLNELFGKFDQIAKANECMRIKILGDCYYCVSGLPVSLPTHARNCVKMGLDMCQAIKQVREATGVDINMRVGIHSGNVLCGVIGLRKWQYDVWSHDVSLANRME
T2 sequence (P51828 879-1023 limits assumed): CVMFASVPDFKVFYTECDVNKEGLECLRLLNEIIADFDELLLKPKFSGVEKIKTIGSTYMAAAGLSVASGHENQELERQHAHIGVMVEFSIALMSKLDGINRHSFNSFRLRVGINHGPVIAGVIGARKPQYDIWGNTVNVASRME

For `CC(Sc1nc2ccccc2[nH]1)C(=O)N/N=C/c1cc(Br)ccc1O` (centres unmarked) [KH7], the “effect on tmACs” value (tmACs [1]) was “inert towards tmACs”, the pIC50 (tmACs [2]) was less than 3.30 and the “IC50 for blocking glucose-induced cAMP, compared with sAC inhibition” value (cAMP in INS-1E cells) was “matched its dose response of sAC inhibition”. The “effect on cAMP induced by high glucose” value (cAMP in INS-1E cells; [10]) was “blocked the cAMP induced by the presence of high glucose”, the “effect on transferrin recycling” value (INS-1E cells [3]) was “unaffected” and the “effect on transferrin recycling” value (INS-1E cells [3]; listed as K17) was “does not affect”. For the same compound, the IC50 [4] was greater than 100 µM, the “effect on infectious growth in red blood cells” value (Plasmodium falciparum) was “rapidly (in a single generation) and potently affected” and the pIC50 [5] was roughly 4.64. For the same compound, the “rescue of KH7 inhibition of GSIS by cAMP analog” value (INS-1E cells [6]; 50 μM KH7, 1 mM 8-Br-SpcAMP) was “rescued by addition of a membrane-permeable cAMP analog”, the “effect on glucose-stimulated insulin secretion (GSIS)” value (INS-1E cells [6]; [10]) was “blocked all insulin release induced by high glucose” and the cellular toxicity (INS-1E cells [6]; INS-1E cells) was “not due to cellular toxicity”. The pIC50 (INS-1E cells [6]; INS-1E, 0.5 h, 16 mM glucose, 30 minutes, read-out: IC50 for inhibition of glucose-stimulated insulin secretion (GSIS)) was roughly 5.30, the “effect on PMA induced insulin release” value (INS-1E cells [6]; 30 minutes) was “unaffected” and the “effect on PMA induced insulin release” value (INS-1E cells [6]; 30 minutes, listed as K17) was “does not affect”. For the same compound, the “insulin release over time after addition of high glucose” value (INS-1E cells [6]; in the presence of KH7) was “no significant insulin release was observed up to 45 minutes”, the “GSIS after drug washout” value (INS-1E cells [6]; sixty minutes following removal of drug) was “normal GSIS was restored” and the “dose response for inhibiting PfAC activity versus killing parasites” value (PfAC) was “equal dose responses at killing parasites and at inhibiting PfAC activity”. For the same compound, the pIC50 [7] was less than 4.26, the “effect on insulin release induced by high glucose in islets” value (primary mouse islets) was “inhibited insulin release induced by high glucose” and the “effect on sAC overexpression-induced increase in insulin release” value [8] was “inhibited”. The “effect on bicarbonate-induced CREB phosphorylation” value [9] was “effective in preventing bicarbonate-induced CREB phosphorylation” and the “effect on CO2 induced differentiation into the filamentous, infectious stage” value (Candida albicans) was “dose dependently inhibited”.
